Results reported in BigSolDB 2.1.

Work on `c1ccc2c(c1)Cc1ccccc1-2` yielded a solubility (mole fraction) (in THF, 278.15 K) of 0.12, a solubility (mole fraction) (in THF, 283.15 K) of 0.13 and a solubility (mole fraction) (in THF, 288.15 K) of 0.148. It also gave a solubility (mole fraction) (in THF, 293.15 K) of 0.163, a solubility (mole fraction) (in THF, 298.15 K) of 0.182 and a solubility (mole fraction) (in THF, 303.15 K) of 0.2. For the same compound, the solubility (mole fraction) (in THF, 308.15 K) was 0.225, the solubility (mole fraction) (in THF, 313.15 K) was 0.248 and the solubility (mole fraction) (in THF, 318.15 K) was 0.273. The solubility (mole fraction) (in acetone, 278.15 K) was 0.0353, the solubility (mole fraction) (in acetone, 283.15 K) was 0.0406 and the solubility (mole fraction) (in acetone, 288.15 K) was 0.0482. The solubility (mole fraction) (in acetone, 293.15 K) was 0.0567, the solubility (mole fraction) (in acetone, 298.15 K) was 0.0658 and the solubility (mole fraction) (in acetone, 303.15 K) was 0.0779. For the same compound, the solubility (mole fraction) (in acetone, 308.15 K) was 0.0931, the solubility (mole fraction) (in acetone, 313.15 K) was 0.109 and the solubility (mole fraction) (in acetone, 318.15 K) was 0.126. It also gave a solubility (mole fraction) (in acetonitrile, 278.15 K) of 0.0101, a solubility (mole fraction) (in acetonitrile, 283.15 K) of 0.0113 and a solubility (mole fraction) (in acetonitrile, 288.15 K) of 0.0138. It also gave a solubility (mole fraction) (in acetonitrile, 293.15 K) of 0.0161, a solubility (mole fraction) (in acetonitrile, 298.15 K) of 0.0197 and a solubility (mole fraction) (in acetonitrile, 303.15 K) of 0.0235. It also gave a solubility (mole fraction) (in acetonitrile, 308.15 K) of 0.0288, a solubility (mole fraction) (in acetonitrile, 313.15 K) of 0.0345 and a solubility (mole fraction) (in acetonitrile, 318.15 K) of 0.0406. The solubility (mole fraction) (in ethanol, 278.15 K) was 0.0038, the solubility (mole fraction) (in ethanol, 283.15 K) was 0.00448 and the solubility (mole fraction) (in ethanol, 288.15 K) was 0.0055. It also gave a solubility (mole fraction) (in ethanol, 293.15 K) of 0.00669, a solubility (mole fraction) (in ethanol, 298.15 K) of 0.00816 and a solubility (mole fraction) (in ethanol, 303.15 K) of 0.00937. For the same compound, the solubility (mole fraction) (in ethanol, 308.15 K) was 0.0111, the solubility (mole fraction) (in ethanol, 313.15 K) was 0.0132 and the solubility (mole fraction) (in ethanol, 318.15 K) was 0.0154. It also gave a solubility (mole fraction) (in ethyl acetate, 278.15 K) of 0.046, a solubility (mole fraction) (in ethyl acetate, 283.15 K) of 0.0542 and a solubility (mole fraction) (in ethyl acetate, 288.15 K) of 0.062. For the same compound, the solubility (mole fraction) (in ethyl acetate, 293.15 K) was 0.0737, the solubility (mole fraction) (in ethyl acetate, 298.15 K) was 0.0866 and the solubility (mole fraction) (in ethyl acetate, 303.15 K) was 0.102. For the same compound, the solubility (mole fraction) (in ethyl acetate, 308.15 K) was 0.119, the solubility (mole fraction) (in ethyl acetate, 313.15 K) was 0.139 and the solubility (mole fraction) (in ethyl acetate, 318.15 K) was 0.163. The solubility (mole fraction) (in ethyl formate, 278.15 K) was 0.0346, the solubility (mole fraction) (in ethyl formate, 283.15 K) was 0.0395 and the solubility (mole fraction) (in ethyl formate, 288.15 K) was 0.046. The solubility (mole fraction) (in ethyl formate, 293.15 K) was 0.0552, the solubility (mole fraction) (in ethyl formate, 298.15 K) was 0.0654 and the solubility (mole fraction) (in ethyl formate, 303.15 K) was 0.0781. For the same compound, the solubility (mole fraction) (in ethyl formate, 308.15 K) was 0.0933, the solubility (mole fraction) (in ethyl formate, 313.15 K) was 0.112 and the solubility (mole fraction) (in ethyl formate, 318.15 K) was 0.133. For the same compound, the solubility (mole fraction) (in isobutyl acetate, 278.15 K) was 0.0546, the solubility (mole fraction) (in isobutyl acetate, 283.15 K) was 0.0611 and the solubility (mole fraction) (in isobutyl acetate, 288.15 K) was 0.0718. For the same compound, the solubility (mole fraction) (in isobutyl acetate, 293.15 K) was 0.0816, the solubility (mole fraction) (in isobutyl acetate, 298.15 K) was 0.0914 and the solubility (mole fraction) (in isobutyl acetate, 303.15 K) was 0.104. The solubility (mole fraction) (in isobutyl acetate, 308.15 K) was 0.124, the solubility (mole fraction) (in isobutyl acetate, 313.15 K) was 0.142 and the solubility (mole fraction) (in isobutyl acetate, 318.15 K) was 0.162. The solubility (mole fraction) (in isopropanol, 278.15 K) was 0.00401, the solubility (mole fraction) (in isopropanol, 283.15 K) was 0.0045 and the solubility (mole fraction) (in isopropanol, 288.15 K) was 0.00559. It also gave a solubility (mole fraction) (in isopropanol, 293.15 K) of 0.00675, a solubility (mole fraction) (in isopropanol, 298.15 K) of 0.00808 and a solubility (mole fraction) (in isopropanol, 303.15 K) of 0.00943. It also gave a solubility (mole fraction) (in isopropanol, 308.15 K) of 0.0121, a solubility (mole fraction) (in isopropanol, 313.15 K) of 0.0149 and a solubility (mole fraction) (in isopropanol, 318.15 K) of 0.0177. The solubility (mole fraction) (in isopropyl acetate, 278.15 K) was 0.044, the solubility (mole fraction) (in isopropyl acetate, 283.15 K) was 0.0504 and the solubility (mole fraction) (in isopropyl acetate, 288.15 K) was 0.058. It also gave a solubility (mole fraction) (in isopropyl acetate, 293.15 K) of 0.0695, a solubility (mole fraction) (in isopropyl acetate, 298.15 K) of 0.0812 and a solubility (mole fraction) (in isopropyl acetate, 303.15 K) of 0.0936. It also gave a solubility (mole fraction) (in isopropyl acetate, 308.15 K) of 0.11, a solubility (mole fraction) (in isopropyl acetate, 313.15 K) of 0.127 and a solubility (mole fraction) (in isopropyl acetate, 318.15 K) of 0.148. For the same compound, the solubility (mole fraction) (in methanol, 278.15 K) was 0.00199, the solubility (mole fraction) (in methanol, 283.15 K) was 0.00235 and the solubility (mole fraction) (in methanol, 288.15 K) was 0.00275. The solubility (mole fraction) (in methanol, 293.15 K) was 0.00313, the solubility (mole fraction) (in methanol, 298.15 K) was 0.00395 and the solubility (mole fraction) (in methanol, 303.15 K) was 0.00452. The solubility (mole fraction) (in methanol, 308.15 K) was 0.00528, the solubility (mole fraction) (in methanol, 313.15 K) was 0.00645 and the solubility (mole fraction) (in methanol, 318.15 K) was 0.00709. The solubility (mole fraction) (in methyl acetate, 278.15 K) was 0.0374, the solubility (mole fraction) (in methyl acetate, 283.15 K) was 0.0422 and the solubility (mole fraction) (in methyl acetate, 288.15 K) was 0.0498. It also gave a solubility (mole fraction) (in methyl acetate, 293.15 K) of 0.0607, a solubility (mole fraction) (in methyl acetate, 298.15 K) of 0.0712 and a solubility (mole fraction) (in methyl acetate, 303.15 K) of 0.0856. It also gave a solubility (mole fraction) (in methyl acetate, 308.15 K) of 0.1, a solubility (mole fraction) (in methyl acetate, 313.15 K) of 0.12 and a solubility (mole fraction) (in methyl acetate, 318.15 K) of 0.142. The solubility (mole fraction) (in n-butyl acetate, 278.15 K) was 0.0693, the solubility (mole fraction) (in n-butyl acetate, 283.15 K) was 0.0756 and the solubility (mole fraction) (in n-butyl acetate, 288.15 K) was 0.0874. The solubility (mole fraction) (in n-butyl acetate, 293.15 K) was 0.0991, the solubility (mole fraction) (in n-butyl acetate, 298.15 K) was 0.111 and the solubility (mole fraction) (in n-butyl acetate, 303.15 K) was 0.121. For the same compound, the solubility (mole fraction) (in n-butyl acetate, 308.15 K) was 0.146, the solubility (mole fraction) (in n-butyl acetate, 313.15 K) was 0.167 and the solubility (mole fraction) (in n-butyl acetate, 318.15 K) was 0.19. For the same compound, the solubility (mole fraction) (in n-propanol, 278.15 K) was 0.0052, the solubility (mole fraction) (in n-propanol, 283.15 K) was 0.00612 and the solubility (mole fraction) (in n-propanol, 288.15 K) was 0.0072. The solubility (mole fraction) (in n-propanol, 293.15 K) was 0.009, the solubility (mole fraction) (in n-propanol, 298.15 K) was 0.0112 and the solubility (mole fraction) (in n-propanol, 303.15 K) was 0.013. The solubility (mole fraction) (in n-propanol, 308.15 K) was 0.0155, the solubility (mole fraction) (in n-propanol, 313.15 K) was 0.0186 and the solubility (mole fraction) (in n-propanol, 318.15 K) was 0.0216. The solubility (mole fraction) (in n-propyl acetate, 278.15 K) was 0.0596, the solubility (mole fraction) (in n-propyl acetate, 283.15 K) was 0.0671 and the solubility (mole fraction) (in n-propyl acetate, 288.15 K) was 0.0763. For the same compound, the solubility (mole fraction) (in n-propyl acetate, 293.15 K) was 0.0862, the solubility (mole fraction) (in n-propyl acetate, 298.15 K) was 0.0969 and the solubility (mole fraction) (in n-propyl acetate, 303.15 K) was 0.108. It also gave a solubility (mole fraction) (in n-propyl acetate, 308.15 K) of 0.134, a solubility (mole fraction) (in n-propyl acetate, 313.15 K) of 0.153 and a solubility (mole fraction) (in n-propyl acetate, 318.15 K) of 0.176.
